How the values were obtained:
[1] = system: ec302 (TEM-10); experiment: Tigemonam potentiation (MPC@4), ec302; format: cell-based
[2] = system: ECL1002; experiment: Tigemonam potentiation (MPC@4), ECL1002; format: cell-based; settings: BLI with tigemonam at 4 μg/mL
[3] = system: EC1010 (CMY-6); experiment: organism not typed; format: cell-based
[4] = system: KP1010 (SHV-12); experiment: Aztreonam potentiation (MPC@4), KP1010; format: cell-based
[5] = system: KP1005 (CTX-M-14); experiment: Aztreonam potentiation (MPC@4), KP1005; format: cell-based; settings: BLI with aztreonam at 4 μg/mL
[6] = molecular target: Pa AmpC (Pseudomonas aeruginosa, UniProt P24735); experiment: Ki, nitrocefin cleavage by purified enzyme, Pa AmpC; format: biochemical; settings: nitrocefin reporter substrate; read-out: Ki (Pa AmpC, NCF)
In short: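 Ki derived spectrophotometrically: after adding nitrocefin, absorbance at 490 nm recorded every 10 sec over 10 min. Each purified enzyme had first been incubated with inhibitor at several concentrations for 10 min at room temperature.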

[7] = system: PAM1032/KPC-2; experiment: Biapenem potentiation MPC64, PAM1032/KPC-2 (efflux proficient); format: cell-based, Pseudomonas aeruginosa; settings: BLI to decrease MIC of biapenem 64-fold; MexAB-OprM overexpressed
Description: Efflux of BLIs from Pseudomonas aeruginosa by the MexAB-OprM efflux pump was also evaluated. […] Due to expression of KPC-2 both strains became resistant to biapenem. […] Potency of BLIs to potentiate biapenem in these strains was determined. […] The ratio of MPC64 values for each BLI in PAM1032/KPC-2 (efflux proficient) and PAM1154/KPC-2 (efflux deficient) was determined to generate the Efflux Index (EI).

[8] = system: ec302 (TEM-10); experiment: Aztreonam potentiation (MPC@4), ec302; format: cell-based; settings: BLI with aztreonam at 4 μg/mL
[9] = system: ec308 (SHV-5); experiment: Aztreonam potentiation (MPC@4), ec308; format: cell-based; settings: BLI with aztreonam at 4 μg/mL
[10] = system: ec308 (SHV-5); experiment: Tigemonam potentiation (MPC@4), ec308; format: cell-based
[11] = system: KP1005 (CTX-M-14); experiment: Tigemonam potentiation (MPC@4), KP1005; format: cell-based; settings: BLI with tigemonam at 4 μg/mL
[12] = system: KP1010 (SHV-12); experiment: Tigemonam potentiation (MPC@4), KP1010; format: cell-based
[13] = system: KP1086 (OXA-48); experiment: Biapenem potentiation (MPC@1), KP1086; settings: BLI with biapenem at 1 μg/mL
[14] = system: KP1004 (KPC-2); experiment: Biapenem potentiation (MPC@1), KP1004; settings: BLI with biapenem at 1 μg/mL
[15] = system: KP1009 (CTX-M-15); experiment: Tigemonam potentiation (MPC@4), KP1009; format: cell-based; settings: BLI with tigemonam at 4 μg/mL
[16] = system: EC1010 (CMY-6); experiment: Tigemonam potentiation (MPC@4), EC1010; format: cell-based; settings: BLI with tigemonam at 4 μg/mL
[17] = molecular target: CTX-M-14 (Escherichia coli, UniProt Q9L5C7); experiment: Ki, nitrocefin cleavage by purified enzyme, CTX-M-14; format: biochemical; settings: nitrocefin reporter substrate; read-out: Ki (CTX-M-14, NCF)
In short: (§1)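 Readout: nitrocefin hydrolysis, A490 recorded every 10 sec over 10 min. Enzyme and inhibitor (varied concentrations) preincubated 10 min, RT, in reaction buffer before substrate addition.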

[18] = molecular target: KPC-2 (Klebsiella pneumoniae, UniProt Q9F663); experiment: Ki, nitrocefin cleavage by purified enzyme, KPC-2; format: biochemical; settings: nitrocefin reporter substrate; read-out: Ki (KPC-2, NCF)
In short: as §1

[19] = system: ECL1002; experiment: Aztreonam potentiation (MPC@4), ECL1002; format: cell-based; settings: BLI with aztreonam at 4 μg/mL
[20] = molecular target: SHV-12 (Klebsiella pneumoniae, UniProt P0AD64, E235K/G234S/L31Q); experiment: Ki, nitrocefin cleavage by purified enzyme, SHV-12; format: biochemical; settings: nitrocefin reporter substrate; read-out: Ki (SHV-12, NCF)
In short: as §1

[21] = system: KP1004 (KPC-2); experiment: Aztreonam potentiation (MPC@4), KP1004; format: cell-based; settings: BLI with aztreonam at 4 μg/mL
[22] = molecular target: P99 (Enterobacter cloacae, UniProt P05364); experiment: Ki, nitrocefin cleavage by purified enzyme, P99; format: biochemical; settings: nitrocefin reporter substrate; read-out: Ki (P99, NCF)
In short: as §1

[23] = molecular target: OXA-48 (Klebsiella pneumoniae, UniProt Q6XEC0); experiment: Ki, nitrocefin cleavage by purified enzyme, OXA-48; format: biochemical; settings: nitrocefin reporter substrate; read-out: Ki (OXA-48, NCF)
In short: as §1

[24] = system: KP1009 (CTX-M-15); experiment: organism not typed; format: cell-based

Chain of Pa AmpC (P24735 27-397): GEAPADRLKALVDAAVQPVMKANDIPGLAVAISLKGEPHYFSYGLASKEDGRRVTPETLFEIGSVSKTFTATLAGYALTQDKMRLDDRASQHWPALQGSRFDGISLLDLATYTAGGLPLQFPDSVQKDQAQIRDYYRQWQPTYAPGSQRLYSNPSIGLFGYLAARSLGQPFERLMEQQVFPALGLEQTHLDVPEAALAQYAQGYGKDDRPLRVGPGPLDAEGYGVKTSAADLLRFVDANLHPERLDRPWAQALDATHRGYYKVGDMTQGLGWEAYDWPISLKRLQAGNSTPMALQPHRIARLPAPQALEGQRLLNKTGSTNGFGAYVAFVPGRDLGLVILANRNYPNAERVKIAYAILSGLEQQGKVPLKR
Chain of CTX-M-14 (Q9L5C7 29-291): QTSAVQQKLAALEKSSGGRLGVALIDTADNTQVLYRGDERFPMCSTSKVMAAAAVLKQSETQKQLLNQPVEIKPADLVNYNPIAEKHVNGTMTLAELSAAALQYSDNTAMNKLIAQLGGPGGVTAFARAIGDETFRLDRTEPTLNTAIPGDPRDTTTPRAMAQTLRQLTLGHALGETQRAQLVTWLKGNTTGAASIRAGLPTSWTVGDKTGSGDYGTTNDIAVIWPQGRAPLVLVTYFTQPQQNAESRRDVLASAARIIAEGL
Chain of KPC-2 (Q9F663 25-293, looked up, species assumed): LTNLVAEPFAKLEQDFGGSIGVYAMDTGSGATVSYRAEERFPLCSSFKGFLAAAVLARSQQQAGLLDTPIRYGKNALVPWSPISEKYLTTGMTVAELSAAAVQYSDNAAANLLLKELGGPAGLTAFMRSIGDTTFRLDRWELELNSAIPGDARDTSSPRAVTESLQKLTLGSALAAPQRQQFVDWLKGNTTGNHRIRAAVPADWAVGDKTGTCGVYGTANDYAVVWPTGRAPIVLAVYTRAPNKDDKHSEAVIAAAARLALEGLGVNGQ
Chain of SHV-12 (P0AD64 22-286 L31Q/G234S/E235K): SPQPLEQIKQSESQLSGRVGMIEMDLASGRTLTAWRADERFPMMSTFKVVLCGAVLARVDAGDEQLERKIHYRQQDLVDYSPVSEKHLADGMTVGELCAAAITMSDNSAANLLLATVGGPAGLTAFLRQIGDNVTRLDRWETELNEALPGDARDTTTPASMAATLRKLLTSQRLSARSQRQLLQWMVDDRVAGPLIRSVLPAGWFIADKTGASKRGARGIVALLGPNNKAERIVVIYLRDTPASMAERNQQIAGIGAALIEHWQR
Chain of P99 (P05364 21-381): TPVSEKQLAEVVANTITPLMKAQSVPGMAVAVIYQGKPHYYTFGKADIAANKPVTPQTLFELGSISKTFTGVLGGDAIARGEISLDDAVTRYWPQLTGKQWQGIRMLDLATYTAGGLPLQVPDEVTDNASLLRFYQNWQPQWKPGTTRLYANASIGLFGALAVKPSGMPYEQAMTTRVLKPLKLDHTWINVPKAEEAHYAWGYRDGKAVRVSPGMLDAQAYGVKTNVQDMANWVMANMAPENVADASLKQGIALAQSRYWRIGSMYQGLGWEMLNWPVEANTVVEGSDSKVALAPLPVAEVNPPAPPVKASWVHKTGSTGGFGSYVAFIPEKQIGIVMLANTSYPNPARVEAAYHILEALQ
Chain of OXA-48 (Q6XEC0 23-265, looked up, species assumed): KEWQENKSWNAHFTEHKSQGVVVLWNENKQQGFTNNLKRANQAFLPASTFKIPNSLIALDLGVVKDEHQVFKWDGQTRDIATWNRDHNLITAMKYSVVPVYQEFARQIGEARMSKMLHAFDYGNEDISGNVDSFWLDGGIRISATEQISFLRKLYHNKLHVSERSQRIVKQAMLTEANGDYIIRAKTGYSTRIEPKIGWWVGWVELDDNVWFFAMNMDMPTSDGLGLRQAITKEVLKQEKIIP

Row | SMILES | TIG MPC4 TEM-10 ec302 [1] | TIG MPC4 ECL1002 [2] | AZT MPC4 SHV-12 KP1010 [4] | AZT MPC4 CTX-M-14 KP1005 [5] | Ki [6] [nM] | PAM1032/KPC-2 Biapenem MPC64 [7] | AZT MPC4 TEM-10 ec302 [8] | AZT MPC4 SHV-5 ec308 [9] | TIG MPC4 SHV-5 ec308 [10] | TIG MPC4 CTX-M-14 KP1005 [11] | TIG MPC4 SHV-12 KP1010 [12] | BPM MPC1 OXA-48 KP1086 [13] | BPM MPC1 KP1004 KPC-2 [14] | TIG MPC4 CTX-M-15 KP1009 [15] | TIG MPC4 CMY-6 EC1010 [16] | Ki [17] [nM] | also measured
1 | Nc1nnc(C(=O)N[C@H]2Cc3cccc(C(=O)O)c3OB2O)s1 [H, reference compound] | Y (key: X: MIC of less than 1 ng/mL; Y: MIC of 1 μg/mL to 10 μg/mL; Z: MIC of greater than 10 μg/mL) | X (MIC of less than 1 μg/mL) | X (key: X: MIC of less than 1 ng/mL; Y: MIC of 1 μg/mL to 10 μg/mL; Z: MIC of greater than 10 μg/mL) | Y (MIC of 1 μg/mL to 10 μg/mL) | < 1 | 80 | X (MIC of less than 1 ng/mL) | X (MIC of less than 1 ng/mL) | X (key: X: MIC of less than 1 μg/mL; Y: MIC of 1 μg/mL to 10 μg/mL; Z: MIC of greater than 10 μg/mL) | Y (MIC of 1 μg/mL to 10 μg/mL) | X (key: X: MIC of less than 1 μg/mL; Y: MIC of 1 μg/mL to 10 μg/mL; Z: MIC of greater than 10 μg/mL) | Y (MIC of 1 μg/mL to 10 μg/mL) | X (MIC of less than 1 μg/mL) | X (MIC of less than 1 μg/mL) |  |  | AZT MPC4 CMY-6 EC1010 [3]: X (key: X: MIC of less than 1 ng/mL; Y: MIC of 1 μg/mL to 10 μg/mL; Z: MIC of greater than 10 μg/mL)
2 | CNC(=O)CC(=O)N[C@H]1Cc2cccc(C(=O)O)c2OB1O [G, reference compound] | Z (key: X: MIC of less than 1 ng/mL; Y: MIC of 1 μg/mL to 10 μg/mL; Z: MIC of greater than 10 μg/mL) |  |  | Y (MIC of 1 μg/mL to 10 μg/mL) |  | 40 | Y (MIC of 1 μg/mL to 10 μg/mL) |  | Y (key: X: MIC of less than 1 ng/mL; Y: MIC of 1 μg/mL to 10 μg/mL; Z: MIC of greater than 10 μg/mL) | Y (MIC of 1 μg/mL to 10 μg/mL) |  |  |  |  | X (MIC of less than 1 μg/mL) | < 1 | 
3 | O=C(O)CC(=O)N[C@H]1Cc2cccc(C(=O)O)c2OB1O [D, reference compound] | Z (key: X: MIC of less than 1 ng/mL; Y: MIC of 1 μg/mL to 10 μg/mL; Z: MIC of greater than 10 μg/mL) | X (MIC of less than 1 μg/mL) | Y (key: X: MIC of less than 1 ng/mL; Y: MIC of 1 μg/mL to 10 μg/mL; Z: MIC of greater than 10 μg/mL) | Y (MIC of 1 μg/mL to 10 μg/mL) | > 10 |  | Z (MIC of greater than 10 μg/mL) | Y (MIC of 1 μg/mL to 10 μg/mL) | Y (key: X: MIC of less than 1 ng/mL; Y: MIC of 1 μg/mL to 10 μg/mL; Z: MIC of greater than 10 μg/mL) | Z (MIC of greater than 10 μg/mL) | Y (key: X: MIC of less than 1 ng/mL; Y: MIC of 1 μg/mL to 10 μg/mL; Z: MIC of greater than 10 μg/mL) | Y (MIC of 1 μg/mL to 10 μg/mL) | X (MIC of less than 1 μg/mL) | Y (MIC of 1 μg/mL to 10 μg/mL) | X (MIC of less than 1 μg/mL) | < 1 | Ki [18]: > 10 nM; AZT MPC4 ECL1002 [19]: Y (MIC of 1 μg/mL to 10 μg/mL); Ki [20]: 1 to 10 nM; AZT MPC4 KPC-2 KP1004 [21]: Y (MIC of 1 μg/mL to 10 μg/mL); Ki [22]: > 10 nM; Ki [23]: < 1 nM; AZT MPC4 CTX-M-15 KP1009 [24]: Y (key: X: MIC of less than 1 ng/mL; Y: MIC of 1 μg/mL to 10 μg/mL; Z: MIC of greater than 10 μg/mL)
4 | O=C(CSC1CNC1)N[C@H]1Cc2cccc(C(=O)O)c2OB1O [B, reference compound] | Z (key: X: MIC of less than 1 ng/mL; Y: MIC of 1 μg/mL to 10 μg/mL; Z: MIC of greater than 10 μg/mL) |  |  |  | 1 to 10 | 2.5 | Y (MIC of 1 μg/mL to 10 μg/mL) |  | Y (key: X: MIC of less than 1 ng/mL; Y: MIC of 1 μg/mL to 10 μg/mL; Z: MIC of greater than 10 μg/mL) | Y (MIC of 1 μg/mL to 10 μg/mL) |  |  |  |  | X (MIC of less than 1 μg/mL) |  | 

— US9963467B2, “Boronic acid derivatives and therapeutic uses thereof” (Rempex Pharmaceuticals, Inc., priority 2014, dated 2018)
